Earlier results on 1 compound are cited in patent US20070298098A1, “Controlled Release Compositions Comprising Levetiracetam” (ELAN PHARMA INTERNATIONAL LIMITED, priority 2005, published 2007).

Entries after “also recorded” stand apart in the source; their conditions may differ.

For the compound `CC[C@@H](C(N)=O)N1CCCC1=O` (single isomer, unassigned) [Levetiracetam], for the setting “across studies”, the plasma half-life was 6 to 8 h. In addition, for the setting “dose range of 500-5000 mg”, the linearity of pharmacokinetics entry is “linear”. Also, for the setting “in vivo”, the “dependence of metabolism on liver cytochrome P450” value is listed as “not liver cytochrome P450 dependent”; the “dose renally excreted unchanged” value is reported as 66%; the “major metabolic pathway (enzymatic hydrolysis of the acetamide group), share of dose” value was 24 % of dose. Also, for the setting “multiple twice-daily dosing”, the “time to steady state” value is 2 days. The “time of peak plasma concentrations” value (oral administration, fasted subjects) is on record as “about an hour”. Also, under “with food”, the “decrease of Cmax by food” value is given as 20%, the “delay of Tmax by food” value was 1.5 h and the “effect of food on extent of bioavailability / absorption” value was “not affected by food; also recorded: Food does not affect the extent of absorption”.
